Where two headings read alike, the source gives them in different places.
Legend:
M14 = assay: cells; conditions: Homo sapiens
TK-10 = assay: cells; conditions: Homo sapiens
OVCAR-4 [1] = system: OVCAR-4
OVCAR-4 [2] = assay: cells; conditions: Homo sapiens
CCRF-CEM = conditions: for Mean Optical Densities / Percent Growth: CCRF-CEM
HL-60(TB) = assay: cells; conditions: Homo sapiens
NCI-H522 = assay: cells; conditions: Homo sapiens
SF-539 = assay: cells; conditions: Homo sapiens
MCF-7 tumors = assay: MCF-7 tumor growth in nude mice, BS-194 subcutaneous; assay type: in vivo, Balb/c nude mice; conditions: subcutaneous twice daily, 14 days
Experimental: In all, 32 female 8- to 10-week Balb/c nude mice (Harlan UK) were randomly divided into three groups. The mice received 0.72 mg 60-day release E2 pellets (Innovative Research of America, USA), subcutaneously implanted in one flank. MCF7 cells, were trypsinized and 5×10^6 cells in 0.1 ml of PBS were subcutaneously injected into the other flank of each mouse and tumor volumes were measured every 2-3 days, according to the formula (tumor width squared×tumor length)/2. Animal weight was also recorded throughout the course of the study. The animals were injected subcutaneously with BS-194, prepared in 10% DMSO, 50 mM HCl, 5% Tween 20, and 85% Saline, twice daily for 14 days, at which point the animals were sacrificed. The xenograft experiments were conducted after appropriate ethical approval and licensing was obtained in accordance with the UK ‘Guidance on the operation of animals (Scientific Procedure) Act 1986 (HMSO, London, UK, 1990).

SK-MEL-28 = assay: cells; conditions: Homo sapiens
RXF 393 = assay: cells; conditions: Homo sapiens
[3] = SNB-19, log10 concentration −4.0
[4] = SNB-19, log10 concentration −5.0
[5] = SNB-19, log10 concentration −6.0
[6] = SNB-19, log10 concentration −7.0
[7] = SNB-19, log10 concentration −8.0
[8] = OVCAR-4, log10 concentration −4.0
[9] = OVCAR-4, log10 concentration −5.0
[10] = OVCAR-4, log10 concentration −6.0
[11] = OVCAR-4, log10 concentration −7.0
[12] = OVCAR-4, log10 concentration −8.0
[13] = SW-620, log10 concentration −4.0
[14] = SW-620, log10 concentration −5.0
[15] = SW-620, log10 concentration −7.0
[16] = SW-620, log10 concentration −8.0
[17] = NCI-H460, log10 concentration −4.0
[18] = NCI-H460, log10 concentration −5.0
[19] = NCI-H460, log10 concentration −6.0
[20] = NCI-H460, log10 concentration −7.0
[21] = NCI-H460, log10 concentration −8.0
[22] = IGROV1, log10 concentration −4.0
[23] = IGROV1, log10 concentration −5.0
[24] = IGROV1, log10 concentration −6.0
[25] = IGROV1, log10 concentration −7.0
[26] = IGROV1, log10 concentration −8.0
[27] = SK-MEL-2, log10 concentration −4.0
[28] = SK-MEL-2, log10 concentration −5.0
[29] = SK-MEL-2, log10 concentration −6.0
[30] = SK-MEL-2, log10 concentration −7.0
[31] = SK-MEL-2, log10 concentration −8.0

## CC(C)c1cnn2c(NCc3ccccc3)cc(N[C@@H](CO)[C@H](O)CO)nc12 [ICEC0318, (3S)-3-(7-(Benzylamino)-3-isopropylpyrazolo[1,5-a]pyrimidin-5-ylamino)butane-1,2,4-triol]
M14; M14
  GI50: 305 nM
M14; M14, read-out: LC50
  CC50: 45200 nM
SNB-19; SNB-19 (CNS Cancer)
  TGI: 4.89E−5
SNB-19; [3]
  Mean Optical Densities: 0.492
  Percent Growth: −2%
SNB-19; [4]
  Mean Optical Densities: 0.537
  Percent Growth: 4%
SNB-19; [5]
  Mean Optical Densities: 0.580
  Percent Growth: 9%
SNB-19; [6]
  Mean Optical Densities: 1.247
  Percent Growth: 84%
SNB-19; [7]
  Mean Optical Densities: 1.309
  Percent Growth: 91%
TK-10; TK-10
  GI50: 377 nM
TK-10; TK-10, read-out: LC50
  CC50: > 100000 nM
OVCAR-4 [1]; OVCAR-4 (Ovarian Cancer)
  TGI: 1.45E−5
OVCAR-4 [1]; [8]
  Mean Optical Densities: 0.269
  Percent Growth: −25%
OVCAR-4 [1]; [9]
  Mean Optical Densities: 0.399
  Percent Growth: 5%
OVCAR-4 [1]; [10]
  Mean Optical Densities: 0.445
  Percent Growth: 10%
OVCAR-4 [1]; [11]
  Mean Optical Densities: 1.138
  Percent Growth: 95%
OVCAR-4 [1]; [12]
  Mean Optical Densities: 1.246
  Percent Growth: 109%
SW-620; SW-620 (Colon Cancer)
  TGI: 1.00E−6
SW-620; [13]
  Mean Optical Densities: 0.101
  Percent Growth: −29%
SW-620; [14]
  Mean Optical Densities: 0.125
  Percent Growth: −12%
SW-620; SW-620, log10 concentration −6.0
  Mean Optical Densities: 0.412
SW-620; [15]
  Mean Optical Densities: 0.782
  Percent Growth: 92%
SW-620; [16]
  Mean Optical Densities: 0.839
  Percent Growth: 100%
OVCAR-4 [2]; OVCAR-4
  GI50: 343 nM
OVCAR-4 [2]; OVCAR-4, read-out: LC50
  CC50: > 100000 nM
CCRF-CEM; CCRF-CEM (Leukemia)
  TGI: >1.00E−4
CCRF-CEM; log10 concentration −4.0
  Mean Optical Densities: 0.227
  Percent Growth: 11%
CCRF-CEM; log10 concentration −5.0
  Mean Optical Densities: 0.330
  Percent Growth: 33%
CCRF-CEM; log10 concentration −6.0
  Mean Optical Densities: 0.279
  Percent Growth: 22%
CCRF-CEM; log10 concentration −7.0
  Mean Optical Densities: 0.565
  Percent Growth: 82%
CCRF-CEM; log10 concentration −8.0
  Mean Optical Densities: 0.769
  Percent Growth: 125%
NCI-H460; NCI-H460 (Non-Small Cell Lung Cancer)
  TGI: 1.71E−5
NCI-H460; [17]
  Mean Optical Densities: 0.094
  Percent Growth: −15%
NCI-H460; [18]
  Mean Optical Densities: 0.158
  Percent Growth: 5%
NCI-H460; [19]
  Mean Optical Densities: 0.181
  Percent Growth: 7%
NCI-H460; [20]
  Mean Optical Densities: 0.919
  Percent Growth: 80%
NCI-H460; [21]
  Mean Optical Densities: 1.138
  Percent Growth: 102%
HL-60(TB); HL-60
  GI50: 166 nM
HL-60(TB); HL-60, read-out: LC50
  CC50: > 100000 nM
NCI-H522; NCI-H522
  GI50: 375 nM
NCI-H522; NCI-H522, read-out: LC50
  CC50: > 100000 nM
SF-539; SF-539
  GI50: 199 nM
SF-539; SF-539, read-out: LC50
  CC50: 6850 nM
IGROV1; IGROV1 (Ovarian Cancer)
  TGI: >1.00E−4
IGROV1; [22]
  Mean Optical Densities: 0.451
  Percent Growth: 4%
IGROV1; [23]
  Mean Optical Densities: 0.510
  Percent Growth: 10%
IGROV1; [24]
  Mean Optical Densities: 0.528
  Percent Growth: 12%
IGROV1; [25]
  Mean Optical Densities: 1.088
  Percent Growth: 68%
IGROV1; [26]
  Mean Optical Densities: 1.429
  Percent Growth: 103%
MCF-7 tumors
  Change in animal weight: nearly constant
SK-MEL-28; SK-MEL-28
  GI50: 245 nM
SK-MEL-28; SK-MEL-28, read-out: LC50
  CC50: 37100 nM
A498; A498 (Renal Cancer)
  TGI: 4.83E−7
A498; A498, log10 concentration −4.0
  Mean Optical Densities: 0.386
  Percent Growth: −54%
A498; A498, log10 concentration −5.0
  Mean Optical Densities: 0.365
  Percent Growth: −56%
A498; A498, log10 concentration −6.0
  Mean Optical Densities: 0.414
  Percent Growth: −50%
A498; A498, log10 concentration −7.0
  Mean Optical Densities: 1.321
  Percent Growth: 109%
A498; A498, log10 concentration −8.0
  Mean Optical Densities: 1.280
  Percent Growth: 100%
RXF 393; RXF 393
  GI50: 213 nM
RXF 393; RXF 393, read-out: LC50
  CC50: 54600 nM
SK-MEL-2; SK-MEL-2 (Melanoma)
  TGI: 8.22E−5
SK-MEL-2; [27]
  Mean Optical Densities: 1.061
  Percent Growth: −1%
SK-MEL-2; [28]
  Mean Optical Densities: 1.218
  Percent Growth: 12%
SK-MEL-2; [29]
  Mean Optical Densities: 1.290
  Percent Growth: 18%
SK-MEL-2; [30]
  Mean Optical Densities: 2.275
  Percent Growth: 99%
SK-MEL-2; [31]
  Mean Optical Densities: 2.282
  Percent Growth: 100%

Reference: US8067424B2, “Selective inhibitors for cyclin-dependent kinases” (Emory University, priority 2007, dated 2011)
